# Laboratory results taken from patent US9945843B2, “Methods for identifying compounds that inhibit G protein-coupled receptor (GPR84) agonist-stimulated chemotaxis” (GALAPAGOS NV, priority 2011, dated 2018).
# Assays:
# [1] = test system: chronic DSS-induced colitis; experiment: Mouse chronic DSS-induced inflammatory bowel disease model; assay type: in vivo; conditions: female BALB/c mice, p.o., data not shown
# Description: The compounds identified using the assay method described in Example 2, or others herein, can be further validated in vivo using known disease models. The mouse chronic DSS-induced inflammatory bowel disease model (IBD) is a well validated disease model for inflammatory bowel disease (Wirtz S. et al., 2007 Nature Protocols 2, 541-546; Sina C. et al., 2009 J. Immunol 183 7514-7522).
# To induce a chronic colitis, female BALB/c mice are fed with 4% dextran sodium sulfate (DSS) dissolved in drinking water for 4 days, followed by 3 days of regular drinking water. This cycle is repeated three times. This protocol allows inducing a strong colitis while avoiding high mortality rates. Animals are divided into several groups: • intact (water; vehicle alone, n=10), • diseased (DSS; vehicle alone, n=10), • sulfazalazine used as reference (DSS; sulfazalazine, p.o., n=10) and • the tested compound (DSS; test cpd, p.o., n=10).
# Clinical parameters are measured every other day. The disease activity index (DAI) is a composite measure combining of the individual scores for weight loss, stool consistency and rectal bleeding. Mice are sacrificed at day 20 of the experiment according to the protocol introduced by Sina et al. (2009). At sacrifice time, the complete colon is removed and rinsed with sterile PBS. […]
# [2] = target: T1, GPR84 (Homo sapiens, UniProt Q9NQS5); experiment: Functional GPR84 activation assay: GTP-γS binding assay; assay type: biochemical; design: expressed in transfected cells; conditions: membranes over expressing GPR84; 3,3′ di indolylmethane at EC80; read-out: GTPgS binding EC50
# Method: The following assay can be used for determination of GPR84 activation.
# The assay is performed in a 96 well plate where the following reagents were added. […] In a last step, 30 μL of a mixture consisting of membranes-GTPγS-SpA beads is added [mixture consists of 20 μg/well membranes derived from stable cell line over expressing GPR84 (membranes are pre-incubated with 0.1 μM GDP for 15 min at 4° C.), 0.1 nM [^35S]GTPγS (Perkin Elmer, NEG030) and 0.5 mg/well PVT-WGA SpA beads (Perkin Elmer, RPNQ0001)]. All components are diluted in assay buffer containing 20 mM Hepes pH 7.4; 5 mM MgCl2; 250 mM NaCl; 0.05% BSA; 75 ug/mL saponin. Reactions are incubated for 90 min at room temperature followed by centrifugation at 2000 rpm for 15 min. Plates are read on a Topcount reader (Perkin Elmer) immediately after centrifugation (readout time, 1 min/well).
# [3] = test system: IL8-stimulated chemotaxis of neutrophils; experiment: Human neutrophil migration assay, IL8 as chemotactic agent; conditions: for inhibition at 0.1 µM: read-out: Percentage of chemotaxis inhibition (PIN) @ 0.1 μM; for inhibition at 1 µM: read-out: Percentage of chemotaxis inhibition (PIN) @ 1 μM; for inhibition at 10 µM: read-out: Percentage of chemotaxis inhibition (PIN) @ 10 μM
# Method: In the neutrophil migration assay, neutrophils, freshly isolated from buffy coats from human volunteers, are treated with a compound for 30 minutes. Subsequently, the neutrophils are transferred to the upper wells of a Corning HTS transwell 96 permeable support system, of which the lower wells are filled with a Embelin solution.
# A human buffy coat is diluted with an equal volume of ice cold DPBS. 20 mL of the diluted buffy coat was gently mixed with 4 mL of ACD buffer (140 mM citric acid, 200 mM sodium citrate and 220 mM dextrose). Then, 12 mL of the 6% dextran/0.9% NaCl solution (15 g dextran T2000 and 2.25 g NaCl dissolved in 250 mL H2O) is added to the mixture and the samples are inverted gently up to 20 times. The total volume is transferred to a new recipient and incubated at room temperature for 1 h for complete separation of the two phases to occur. The yellowish supernatant is then transferred to a clean centrifugation tube and centrifuged for 12 minutes at 1300 rpm and 4° C. After centrifugation, the supernatant is discarded and the remaining cell pellet is rapidly resuspended in 12 mL of ice-cold H2O for red blood cell lysis to occur. After 20 seconds, 4 mL of ice-cold 0.6 M KCl is added.
# A cell suspension of 8.9×10^6 cells per milliliter is prepared. 20 μL of compound solution in chemotaxis buffer is added to 180 μL cell suspension. The mixture is incubated at 37° C. for 30 minutes with intermediate resuspension of the cells after 15 minutes. […] The receiver well of the transwell system is then filled with 200 μL chemotaxis buffer containing compound and chemotactic agent (Embelin). After incubation at 37° C. in 5% CO2 for 1 h, the upper plate of the transwell system was removed and the cell suspension in the receiver plate is transferred to a 96-well V-bottom plate. 50 μL of DPBS is added to the receiver plate to prevent remaining cells from drying out. The V-bottom plate is centrifuged for 6 minutes at 1500 rpm. The supernatant is removed and the cells are resuspended in 50 μL DPBS. The cells are then transferred back to the receiver plate of the transwell system. […] The plate is incubated for 10 minutes in the dark, while shaking. 170 μL of cell lysate is then transferred to a white 96-well plate and luminescence is measured. The detected luminescent signal is considered as linearly related to the number of cells having migrated from the upper well to the receiver well.
# The same assay as described above is also performed using IL8 (25 ng/mL) as a chemotactic agent instead of Embelin.
# [4] = target: T1, GPR84; experiment: Human neutrophil migration inhibition assay, Embelin as chemotactic agent; assay type: cell-based; conditions: for inhibition at 0.1 µM / inhibition at 1 µM / inhibition at 10 µM: 5 μM Embelin; for inhibition at 0.1 µM: compound 0.1 μM, read-out: Percentage of chemotaxis inhibition (PIN) @ 0.1 μM; for inhibition at 1 µM: compound 1 μM, read-out: Percentage of chemotaxis inhibition (PIN) @ 1 μM; for inhibition at 10 µM: compound 10 μM, read-out: Percentage of chemotaxis inhibition (PIN) @ 10 μM; for IC50: human neutrophils, Embelin as chemotactic agent, read-out: Embelin-induced neutrophil chemotaxis IC50; for induction of neutrophil chemotaxis: GPR84 agonist used as chemotactic agent
# [5] = target: T1, GPR84; design: expressed in transfected cells; conditions: Wang 2006; WO 2007/027661; cited from earlier work
# [6] = test system: RAW264.7 murine macrophage-like cells; conditions: RAW264.7 cells stimulated with LPS; cited from earlier work
# [7] = test system: tobacco smoke-induced pulmonary inflammation; experiment: Mouse tobacco smoke model; assay type: in vivo; conditions: C57BL/6J mice, 4 daily tobacco smoke exposures; data not shown
# Description: To investigate test compounds, animals are divided into several groups: intact (no treatment, n=5), diseased (TS; vehicle alone, n=10), Roflumilast as reference (TS; Roflumilast n=10), and the test compound (TS; […]=10). […] At the end of 4 days, the numbers of macrophages, epithelial cells, neutrophils and lymphocytes are counted in the BAL. BAL was further analyzed for gene expression and protein level. Lung tissue is dissected for histological analysis, gene expression and protein level measurement.
# T1 sequence (Q9NQS5 whole entry): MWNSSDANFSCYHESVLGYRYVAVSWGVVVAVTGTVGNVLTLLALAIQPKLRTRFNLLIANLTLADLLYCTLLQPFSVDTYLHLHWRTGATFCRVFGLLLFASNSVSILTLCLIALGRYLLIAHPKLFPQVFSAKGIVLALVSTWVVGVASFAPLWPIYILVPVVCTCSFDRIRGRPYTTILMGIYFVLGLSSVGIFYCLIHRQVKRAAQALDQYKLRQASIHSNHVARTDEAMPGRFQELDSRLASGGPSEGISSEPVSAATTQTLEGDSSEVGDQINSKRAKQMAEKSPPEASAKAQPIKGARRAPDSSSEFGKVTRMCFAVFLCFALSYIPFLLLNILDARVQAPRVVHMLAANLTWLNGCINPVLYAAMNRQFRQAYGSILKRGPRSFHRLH
structure (smiles),measurement,setting,value
O=C(O)c1cc(/N=N/c2ccc(S(=O)(=O)Nc3ccccn3)cc2)ccc1O [sulfazalazine],effect against chronic inflammatory bowel disease,[1],protective effect
"CCC(C)(C)CNc1ccc2c(c1)CCn1c-2cc(OC[C@@H]2COCCO2)nc1=O [Cpd 8, 9-(2,2-Dimethyl-butylamino)-2-((S)-1-[1,4]dioxan-2-ylmethoxy)-6,7-dihydro-pyrimido[6,1-a]isoquinolin-4-one]",EC50,[2],69 nM
same,inhibition at 0.1 µM,[3],9%
same,inhibition at 1 µM,[3],15%
same,inhibition at 10 µM,[3],55%
same,inhibition at 0.1 µM,[4],52%
same,inhibition at 1 µM,[4],95%
same,inhibition at 10 µM,[4],103%
same,IC50,[4],41.4 nM
"CCCCCCCCCCCC1=C(O)C(=O)C=C(O)C1=O [Embelin, 2,5-dihydroxy-3-undecyl-2,5-cyclohexadiene-1,4-dione, reference compound]",GPR84 agonist activity,[5],some GPR84 agonist activity
same,induction of neutrophil chemotaxis,[4],induce neutrophil chemotaxis
"O=c1nc(OC[C@H]2COCCO2)cc2n1CCc1cc(COC3CCCC3)ccc1-2 [Cpd 6, 9-Cyclopentyloxymethyl-2-((R)-1-[1,4]dioxan-2-ylmethoxy)-6,7-dihydro-pyrimido[6,1-a]isoquinolin-4-one]",inhibition at 0.1 µM,[3],20%
same,inhibition at 1 µM,[3],15%
same,inhibition at 10 µM,[3],35%
CCCCCCCCCCCC(=O)O [lauric acid],secretion of interleukin-12 p40 subunit (IL-12 p40),[6],dose-dependently increased
"O=c1nc(OCC2COCCO2)cc2n1CCc1cc(CCC(O)c3cccnc3)ccc1-2 (stereo not drawn) [Cpd 7, 2-([1,4]Dioxan-2-ylmethoxy)-9-(3-hydroxy-3-pyridin-3-yl-propyl)-6,7-dihydro-pyrimido[6,1-a]isoquinolin-4-one]",EC50,[2],41 nM
same,inhibition at 0.1 µM,[3],18%
same,inhibition at 1 µM,[3],22%
same,inhibition at 10 µM,[3],13%
same,inhibition at 0.1 µM,[4],54%
same,inhibition at 1 µM,[4],90%
same,inhibition at 10 µM,[4],81%
same,IC50,[4],83.4 nM
"O=c1nc(OC[C@@H]2COCCO2)cc2n1CCc1cc(CCCNc3ccccc3)ccc1-2 [Cpd 10, 2-((S)-1-[1,4]Dioxan-2-ylmethoxy)-9-(3-phenylamino-propyl)-6,7-dihydro-pyrimido[6,1-a]isoquinolin-4-one]",EC50,[2],8 nM
same,inhibition at 0.1 µM,[3],13%
same,inhibition at 1 µM,[3],7%
same,inhibition at 10 µM,[3],24%
same,inhibition at 0.1 µM,[4],71%
same,inhibition at 1 µM,[4],87%
same,inhibition at 10 µM,[4],80%
same,IC50,[4],9.3 nM
"O=c1nc(OCC2COCCO2)cc2n1CCc1cc(OCc3noc(C4CC4)n3)ccc1-2 (stereo not drawn) [Cpd 1, 9-(5-Cyclopropyl-[1,2,4]oxadiazol-3-ylmethoxy)-2-([1,4]dioxan-2-ylmethoxy)-6,7-dihydro-pyrimido[6,1-a]isoquinolin-4-one]",EC50,[2],36 nM
same,inhibition at 0.1 µM,[3],1%
same,inhibition at 1 µM,[3],-11%
same,inhibition at 10 µM,[3],17%
same,inhibition at 0.1 µM,[4],69%
same,inhibition at 1 µM,[4],86%
same,inhibition at 10 µM,[4],89%
same,IC50,[4],10.4 nM
CCCCCCCCCCC(=O)O [undecanoic acid],secretion of interleukin-12 p40 subunit (IL-12 p40),[6],dose-dependently increased
"O=c1nc(OC[C@@H]2COCCO2)cc2n1CCc1cc(OCC3CCCCO3)ccc1-2 (stereo partly drawn) [Cpd 9, 2-((S)-1-[1,4]Dioxan-2-ylmethoxy)-9-(tetrahydro-pyran-2-ylmethoxy)-6,7-dihydro-pyrimido[6,1-a]isoquinolin-4-one]",EC50,[2],75 nM
same,inhibition at 0.1 µM,[3],25%
same,inhibition at 1 µM,[3],28%
same,inhibition at 10 µM,[3],24%
same,inhibition at 0.1 µM,[4],64%
same,inhibition at 1 µM,[4],94%
same,inhibition at 10 µM,[4],88%
same,IC50,[4],40.8 nM
"CCCC(O)C#Cc1ccc2c(c1)CCn1c-2cc(OCC2COCCO2)nc1=O (stereo not drawn) [Cpd 2, 2-([1,4]Dioxan-2-ylmethoxy)-9-(3-hydroxy-hex-1-ynyl)-6,7-dihydro-pyrimido[6,1-a]isoquinolin-4-one]",EC50,[2],40 nM
same,inhibition at 0.1 µM,[3],13%
same,inhibition at 1 µM,[3],-6%
same,inhibition at 10 µM,[3],20%
same,inhibition at 0.1 µM,[4],86%
same,inhibition at 1 µM,[4],94%
same,inhibition at 10 µM,[4],90%
same,IC50,[4],2.74 nM
"O=c1nc(OCC2COCCO2)cc2n1CCc1cc(COC3CCCC3)ccc1-2 (stereo not drawn) [Cpd 4, 9-Cyclopentyloxymethyl-2-([1,4]dioxan-2-ylmethoxy)-6,7-dihydro-pyrimido[6,1-a]isoquinolin-4-one]",inhibition at 0.1 µM,[3],3%
same,inhibition at 1 µM,[3],3%
same,inhibition at 10 µM,[3],19%
"O=c1nc(OCC2COCCO2)cc2n1CCc1cc(C#CCNc3ccccc3)ccc1-2 (stereo not drawn) [Cpd 3, 2-([1,4]Dioxan-2-ylmethoxy)-9-(3-phenylamino-prop-1-ynyl)-6,7-dihydro-pyrimido[6,1-a]isoquinolin-4-one]",EC50,[2],25 nM
same,inhibition at 0.1 µM,[3],2%
same,inhibition at 1 µM,[3],1%
same,inhibition at 10 µM,[3],-13%
same,inhibition at 0.1 µM,[4],38%
same,inhibition at 1 µM,[4],81%
same,inhibition at 10 µM,[4],72%
same,IC50,[4],6.34 nM
"CCCCCCCCCC(=O)[O-].[Na+] [sodium decanoate, reference compound]",induction of neutrophil chemotaxis,[4],induce neutrophil chemotaxis
CCCCCCCCCC(=O)O [capric acid],secretion of interleukin-12 p40 subunit (IL-12 p40),[6],dose-dependently increased
"CC(O)CCCc1ccc2c(c1)CCn1c-2cc(OC[C@@H]2COCCO2)nc1=O (stereo partly drawn) [Cpd 11, 2-((S)-1-[1,4]Dioxan-2-ylmethoxy)-9-(4-hydroxy-pentyl)-6,7-dihydro-pyrimido[6,1-a]isoquinolin-4-one]",inhibition at 0.1 µM,[3],7%
same,inhibition at 1 µM,[3],0%
same,inhibition at 10 µM,[3],12%
same,inhibition at 0.1 µM,[4],66%
same,inhibition at 1 µM,[4],90%
same,inhibition at 10 µM,[4],86%
same,IC50,[4],3.9 nM
"c1ccc2c(Cc3c[nH]c4ccccc34)c[nH]c2c1 [3,3′ di indolylmethane, reference compound]",GPR84 agonist activity,[5],some GPR84 agonist activity
same,induction of neutrophil chemotaxis,[4],induce neutrophil chemotaxis
O=C(Nc1c(Cl)cncc1Cl)c1ccc(OC(F)F)c(OCC2CC2)c1 [Roflumilast],percentage inhibition of neutrophil counts in BAL,[7],around 60%
"CC(C)C#Cc1ccc2c(c1)CCn1c-2cc(OC[C@@H]2COCCO2)nc1=O [Cpd 5, 2-((S)-1-[1,4]Dioxan-2-ylmethoxy)-9-(3-methyl-but-1-ynyl)-6,7-dihydro-pyrimido[6,1-a]isoquinolin-4-one]",EC50,[2],77 nM
same,inhibition at 0.1 µM,[3],30%
same,inhibition at 1 µM,[3],29%
same,inhibition at 10 µM,[3],48%
same,inhibition at 0.1 µM,[4],73%
same,inhibition at 1 µM,[4],97%
same,inhibition at 10 µM,[4],96%
same,IC50,[4],62.2 nM
